Measured values: US10195179B2, “Spiro-lactam NMDA receptor modulators and uses thereof” (Aptinyx Inc., priority 2016, dated 2019)

Tests used:
[1] = molecular target: NR2B (Homo sapiens, UniProt Q13224); test: Potentiation of [3H]MK-801 binding, wild-type NMDAR2B; set-up: species or system rat
Method: Assays were conducted as described by Moskal et al., “GLYX-13: a monoclonal antibody-derived peptide that acts as an N-methyl-D-aspartate receptor modulator,” Neuropharmacology, 49, 1077-87, 2005. The potentiation of [^3H]MK-801 binding (5 nM; 22.5 Ci/mmol) to well washed rat cortical membranes (200 μg) was measured under non-equilibrium conditions (15 min @ 25° C.) in the presence of increasing concentrations of Compound AA or Compound BB.
FIG. 2A depicts the potentiation of [^3H]MK-801 binding for wild-type NMDAR2 subtypes in the presence of Compound AA. FIG. 2B depicts the potentiation of [^3H]MK-801 binding for wild-type NMDAR2 subtypes in the presence of Compound BB. The following table depicts the results (P means potency and A means activity): […]

[2] = tested on: Sprague Dawley rats; test: Bennett model of mechanical analgesia (paw withdrawal threshold); format: in vivo, rat; settings: 0.1-10 mg/kg PO; tested 1 h, 24 hrs and 1 week post-dosing
Method: Bennett G J, Xie Y K, “A peripheral mononeuropathy in rat that produces disorders of pain sensation like those seen in man,” Pain 33:87-107, 1988. […] Vehicle animals receive the surgery and then receive vehicle rather than test compound. Animals were tested 1 hr, 24 h and 1 wk post-test compound or vehicle administration.
Male 2-3 month old Sprague Dawley rats were used. Harlan was the supplier for all studies. Rats were housed in Lucite cages with aspen wood chip bedding, maintained on a 12:12 light:dark cycle (lights on at 5 AM), and given ad libitum access to Purina lab chow (USA) and tap water throughout the study.
Rats were anesthetized using inhaled isoflurane (2.5%). Spared nerve injury surgery was performed as previously described (Bennett and Xie, 1988). An incision (˜1.5 cm in length) was made with a scalpel blade dorsally through skin on the right hindlimb, parallel and posterior to femur. Using a small pointed hemostat, the biceps femoris and gluteus superficialis muscles were separated. Using curved blunt forceps, the common sciatic nerve was isolated and exposed. For the mechanical analgesia studies, the whole sciatic nerve was ligated. Using hemostats/forceps and chromic gut (5-0), the nerve was loosely ligated with a square knot; 3 ligatures, 1 mm apart were placed on the nerve. […]

[3] = Plasma stability, rat; format: in vitro ADME
Method: Plasma stability for Compound AA and Compound BB was investigated. The following table indicates the percent of Compound AA and Compound BB remaining after 60 minutes.

[4] = tested on: Sprague Dawley rats; test: Blast-induced traumatic brain injury/cognitive deficits measured by PEL; format: in vivo, rat; settings: 10 mg/kg PO 1 h post-blast, PEL 48 hours post-blast
Text: Single blast-induced traumatic brain injury/cognitive deficits were induced, modified for use in rats according to the protocol of Goldstein et al., “Chronic traumatic encephalopathy in blast-exposed military veterans and a blast neurotrauma mouse model,” Science Translational Medicine, Vol. 4, Issue 134, pp. 134ra60, 2012. Male 2-3 month old Sprague Dawley rats were used. Rats were housed in Lucite cages with aspen wood chip bedding, maintained on a 12:12 light:dark cycle (lights on at 5 AM), and given ad libitum access to Purina lab chow (USA) and tap water throughout the study. Rats were first anesthetized using 3.5-4% isoflurane, then the ears were protected with 1.5×1.5 mm foam plugs (Pura-Fit®, Moldex-Metric Inc., Culver City, Calif.), and the rat was placed into a head access rodent thoracic restrainer (Stoelting, USA) to protect the body while allowing the head to move freely. […]
PEL (Positive emotional learning) was conducted 48 hours post-blast. […] High frequency ultrasonic vocalizations (USVs) were recorded and analyzed by sonogram with Avasoft SASlab Pro (Germany) as previously described by Burgdorf et al., “Positive emotional learning is regulated in the medial prefrontal cortex by GluN2B-containing NMDA receptors,” Neuroscience, 192:515-523, 2011. Frequency modulated 50-kHz USVs that occurred during each the no-stimulation periods were quantified to measure PEL. […]

Sequence of NR2B (Q13224 27-1484, species assumed, other chains not shown): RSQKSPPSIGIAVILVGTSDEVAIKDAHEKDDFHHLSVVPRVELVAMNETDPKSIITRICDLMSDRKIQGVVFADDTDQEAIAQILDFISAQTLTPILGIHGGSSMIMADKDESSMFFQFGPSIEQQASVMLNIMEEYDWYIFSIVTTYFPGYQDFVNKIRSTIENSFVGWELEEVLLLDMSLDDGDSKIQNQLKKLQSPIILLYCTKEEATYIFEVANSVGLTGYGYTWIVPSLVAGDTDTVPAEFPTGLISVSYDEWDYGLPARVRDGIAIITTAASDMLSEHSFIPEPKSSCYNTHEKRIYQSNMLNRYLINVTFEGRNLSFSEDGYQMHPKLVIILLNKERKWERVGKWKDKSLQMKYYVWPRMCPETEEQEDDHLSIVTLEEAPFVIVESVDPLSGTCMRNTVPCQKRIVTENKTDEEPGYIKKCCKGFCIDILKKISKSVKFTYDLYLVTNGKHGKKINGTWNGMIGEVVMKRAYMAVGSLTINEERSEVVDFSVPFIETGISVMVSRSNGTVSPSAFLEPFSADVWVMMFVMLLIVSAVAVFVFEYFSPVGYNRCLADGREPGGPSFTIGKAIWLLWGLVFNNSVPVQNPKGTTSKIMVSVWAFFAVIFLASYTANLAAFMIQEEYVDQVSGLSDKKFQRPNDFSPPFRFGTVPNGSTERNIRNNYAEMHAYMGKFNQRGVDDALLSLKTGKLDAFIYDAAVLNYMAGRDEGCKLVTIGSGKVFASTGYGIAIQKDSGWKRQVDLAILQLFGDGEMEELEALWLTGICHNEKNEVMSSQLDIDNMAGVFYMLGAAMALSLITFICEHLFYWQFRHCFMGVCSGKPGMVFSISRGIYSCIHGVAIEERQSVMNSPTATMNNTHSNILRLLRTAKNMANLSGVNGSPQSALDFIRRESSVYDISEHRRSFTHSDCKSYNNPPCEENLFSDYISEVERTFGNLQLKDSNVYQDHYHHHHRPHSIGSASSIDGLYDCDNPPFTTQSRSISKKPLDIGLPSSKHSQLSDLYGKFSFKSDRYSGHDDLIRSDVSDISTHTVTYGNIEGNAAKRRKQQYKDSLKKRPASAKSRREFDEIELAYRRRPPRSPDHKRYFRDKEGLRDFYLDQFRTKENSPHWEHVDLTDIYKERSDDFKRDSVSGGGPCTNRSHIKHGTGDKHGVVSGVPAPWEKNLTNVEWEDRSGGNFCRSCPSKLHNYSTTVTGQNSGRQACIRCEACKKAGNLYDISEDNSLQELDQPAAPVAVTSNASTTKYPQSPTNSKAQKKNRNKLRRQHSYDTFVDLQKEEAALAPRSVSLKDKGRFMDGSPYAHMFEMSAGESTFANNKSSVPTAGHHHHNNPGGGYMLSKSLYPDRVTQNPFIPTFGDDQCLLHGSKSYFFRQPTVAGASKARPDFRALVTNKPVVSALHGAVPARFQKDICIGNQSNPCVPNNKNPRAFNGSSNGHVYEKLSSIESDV

What does the source list for C[C@@H](O)[C@@H](C(N)=O)N1C[C@@]2(CCCN2S(C)(=O)=O)C1=O [Compound BB, (2S,3R)-3-hydroxy-2-((S)-5-(methylsulfonyl)-1-oxo-2,5-diazaspiro[3,4]octan-2-yl)butanamide]?
NR2B A (%) (activity) ([1]; potentiation of [3H]MK-801 binding): 76.3%; NMDAR2B BINDING PROFILE % 1 mM Glycine ([1]; relative to 1 mM glycine): 76.3%; binding to NR2B (in words) ([1]; statement in description): binds; NMDAR2B BINDING PROFILE Conclusion ([1]; wild-type NMDAR2B): WT2B agonist; analgesic effects (paw withdrawal threshold) [2]: analgesic effects; Plasma Stability (% remaining at 60 min) Rat [3]: 86%; blast-induced cognitive deficits as measured by PEL [4]: reversed blast-induced cognitive deficits
